{
  "source": "the supplement of paper PMC10307832",
  "test_in_all_cases": "relative viability (nuclei count vs DMSO), 5 days (fraction); higher = more cells survive",
  "key": {"NCI-H520": {"system": "NCI-H520", "in_short": "(§1)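 Nuclei were stained with Hoechst during a one-step fixation (final 0.05% Triton X-100, 1% formaldehyde, 1 ug/ml Hoechst) carried out 5 days after dosing, then counted on 4× images. The cells, lung cancer lines in 1536-well plates, had been dosed by pin tool the day after seeding with one drug alone or a fixed anchor-drug dose plus five library-drug doses (not always all listed) in √10 steps. Relative viability is the nuclei count in treated wells divided by that in vehicle wells, and each value is the median of duplicate plates.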"}, "LK-2": {"system": "LK-2", "in_short": "as §1"}, "NCI-H460": {"system": "NCI-H460", "in_short": "as §1"}, "A-427": {"system": "A-427", "in_short": "as §1"}, "BEN": {"system": "BEN", "in_short": "as §1"}, "NCI-H2228": {"system": "NCI-H2228", "in_short": "as §1"}, "NCI-H358": {"system": "NCI-H358", "in_short": "as §1"}, "NCI-H2085": {"system": "NCI-H2085", "in_short": "as §1"}, "SW 1573": {"system": "SW 1573", "in_short": "as §1"}, "NCI-H1650": {"system": "NCI-H1650", "in_short": "as §1"}, "NCI-H727": {"system": "NCI-H727", "in_short": "as §1"}, "NCI-H2347": {"system": "NCI-H2347", "in_short": "as §1"}, "NCI-H322M": {"system": "NCI-H322M", "in_short": "as §1"}, "EKVX": {"system": "EKVX", "in_short": "as §1"}, "NCI-H3122": {"system": "NCI-H3122", "in_short": "as §1"}, "NCI-H596": {"system": "NCI-H596", "in_short": "as §1"}, "NCI-H1755": {"system": "NCI-H1755", "in_short": "as §1"}, "NCI-H650": {"system": "NCI-H650", "in_short": "as §1"}, "NCI-H1563": {"system": "NCI-H1563", "in_short": "as §1"}, "NCI-H838": {"system": "NCI-H838", "in_short": "as §1"}},
  "data": [
    {"smiles": "COCC1(CO)C(=O)C2CCN1CC2", "note": "(centres undefined) [PRIMA-1MET] + CS(=O)(=O)CCNCc1ccc(-c2ccc3ncnc(Nc4ccc(OCc5cccc(F)c5)c(Cl)c4)c3c2)o1 [Lapatinib] (partner 2 µM)", "values": [
      {"measurement": "relative viability", "setting": "NCI-H520; first compound 0.2 µM", "result": 0.792},
      {"measurement": "relative viability", "setting": "NCI-H520; first compound 0.6325 µM", "result": 0.987},
      {"measurement": "relative viability", "setting": "NCI-H520; first compound 6.325 µM", "result": 0.828},
      {"measurement": "relative viability", "setting": "NCI-H520; first compound 20 µM", "result": 0.0834},
      {"measurement": "relative viability", "setting": "LK-2; first compound 0.2 µM", "result": 0.885},
      {"measurement": "relative viability", "setting": "LK-2; first compound 0.6325 µM", "result": 0.755},
      {"measurement": "relative viability", "setting": "LK-2; first compound 2 µM", "result": 0.6},
      {"measurement": "relative viability", "setting": "LK-2; first compound 6.325 µM", "result": 0.662},
      {"measurement": "relative viability", "setting": "LK-2; first compound 20 µM", "result": 0.18},
      {"measurement": "relative viability", "setting": "NCI-H460; first compound 0.2 µM", "result": 0.993},
      {"measurement": "relative viability", "setting": "NCI-H460; first compound 0.6325 µM", "result": 0.826},
      {"measurement": "relative viability", "setting": "NCI-H460; first compound 2 µM", "result": 0.893},
      {"measurement": "relative viability", "setting": "NCI-H460; first compound 6.325 µM", "result": 0.607},
      {"measurement": "relative viability", "setting": "NCI-H460; first compound 20 µM", "result": 0.0047},
      {"measurement": "relative viability", "setting": "A-427; first compound 0.2 µM", "result": 1.08},
      {"measurement": "relative viability", "setting": "A-427; first compound 0.6325 µM", "result": 0.849},
      {"measurement": "relative viability", "setting": "A-427; first compound 2 µM", "result": 0.895},
      {"measurement": "relative viability", "setting": "A-427; first compound 6.325 µM", "result": 1.02},
      {"measurement": "relative viability", "setting": "A-427; first compound 20 µM", "result": 0.982},
      {"measurement": "relative viability", "setting": "BEN; first compound 0.2 µM", "result": 0.786},
      {"measurement": "relative viability", "setting": "BEN; first compound 0.6325 µM", "result": 0.774},
      {"measurement": "relative viability", "setting": "BEN; first compound 6.325 µM", "result": 0.82},
      {"measurement": "relative viability", "setting": "BEN; first compound 20 µM", "result": 0.687},
      {"measurement": "relative viability", "setting": "NCI-H2228; first compound 0.2 µM", "result": 1.12},
      {"measurement": "relative viability", "setting": "NCI-H2228; first compound 0.6325 µM", "result": 0.834},
      {"measurement": "relative viability", "setting": "NCI-H2228; first compound 2 µM", "result": 1.59},
      {"measurement": "relative viability", "setting": "NCI-H2228; first compound 6.325 µM", "result": 1.23},
      {"measurement": "relative viability", "setting": "NCI-H2228; first compound 20 µM", "result": 0.0337},
      {"measurement": "relative viability", "setting": "NCI-H358; first compound 0.2 µM", "result": 0.486},
      {"measurement": "relative viability", "setting": "NCI-H358; first compound 0.6325 µM", "result": 0.431},
      {"measurement": "relative viability", "setting": "NCI-H358; first compound 6.325 µM", "result": 0.471},
      {"measurement": "relative viability", "setting": "NCI-H358; first compound 20 µM", "result": 0.0399},
      {"measurement": "relative viability", "setting": "NCI-H2085; first compound 0.2 µM", "result": 0.814},
      {"measurement": "relative viability", "setting": "NCI-H2085; first compound 0.6325 µM", "result": 0.591},
      {"measurement": "relative viability", "setting": "NCI-H2085; first compound 2 µM", "result": 0.523},
      {"measurement": "relative viability", "setting": "NCI-H2085; first compound 6.325 µM", "result": 0.54},
      {"measurement": "relative viability", "setting": "NCI-H2085; first compound 20 µM", "result": 0.493},
      {"measurement": "relative viability", "setting": "SW 1573; first compound 0.2 µM", "result": 1.26},
      {"measurement": "relative viability", "setting": "SW 1573; first compound 0.6325 µM", "result": 1.04},
      {"measurement": "relative viability", "setting": "SW 1573; first compound 2 µM", "result": 0.999},
      {"measurement": "relative viability", "setting": "SW 1573; first compound 6.325 µM", "result": 0.691},
      {"measurement": "relative viability", "setting": "SW 1573; first compound 20 µM", "result": 0.0423},
      {"measurement": "relative viability", "setting": "NCI-H1650; first compound 0.2 µM", "result": 0.84},
      {"measurement": "relative viability", "setting": "NCI-H1650; first compound 0.6325 µM", "result": 0.378},
      {"measurement": "relative viability", "setting": "NCI-H1650; first compound 2 µM", "result": 0.426},
      {"measurement": "relative viability", "setting": "NCI-H1650; first compound 6.325 µM", "result": 0.647},
      {"measurement": "relative viability", "setting": "NCI-H1650; first compound 20 µM", "result": 0.81},
      {"measurement": "relative viability", "setting": "NCI-H727; first compound 0.2 µM", "result": 0.559},
      {"measurement": "relative viability", "setting": "NCI-H727; first compound 0.6325 µM", "result": 0.769},
      {"measurement": "relative viability", "setting": "NCI-H727; first compound 2 µM", "result": 0.503},
      {"measurement": "relative viability", "setting": "NCI-H727; first compound 6.325 µM", "result": 0.624},
      {"measurement": "relative viability", "setting": "NCI-H727; first compound 20 µM", "result": 0.113},
      {"measurement": "relative viability", "setting": "NCI-H2347; first compound 0.2 µM", "result": 0.939},
      {"measurement": "relative viability", "setting": "NCI-H2347; first compound 0.6325 µM", "result": 0.856},
      {"measurement": "relative viability", "setting": "NCI-H2347; first compound 2 µM", "result": 0.57},
      {"measurement": "relative viability", "setting": "NCI-H2347; first compound 6.325 µM", "result": 0.918},
      {"measurement": "relative viability", "setting": "NCI-H2347; first compound 20 µM", "result": 1.06},
      {"measurement": "relative viability", "setting": "NCI-H322M; first compound 0.2 µM", "result": 0.634},
      {"measurement": "relative viability", "setting": "NCI-H322M; first compound 6.325 µM", "result": 0.629},
      {"measurement": "relative viability", "setting": "NCI-H322M; first compound 20 µM", "result": 0.61},
      {"measurement": "relative viability", "setting": "EKVX; first compound 0.2 µM", "result": 0.244},
      {"measurement": "relative viability", "setting": "EKVX; first compound 0.6325 µM", "result": 0.202},
      {"measurement": "relative viability", "setting": "EKVX; first compound 2 µM", "result": 0.174},
      {"measurement": "relative viability", "setting": "EKVX; first compound 6.325 µM", "result": 0.213},
      {"measurement": "relative viability", "setting": "EKVX; first compound 20 µM", "result": 0.201},
      {"measurement": "relative viability", "setting": "NCI-H3122; first compound 0.2 µM", "result": 0.711},
      {"measurement": "relative viability", "setting": "NCI-H3122; first compound 0.6325 µM", "result": 1.04},
      {"measurement": "relative viability", "setting": "NCI-H3122; first compound 2 µM", "result": 1.03},
      {"measurement": "relative viability", "setting": "NCI-H3122; first compound 6.325 µM", "result": 0.996},
      {"measurement": "relative viability", "setting": "NCI-H3122; first compound 20 µM", "result": 0.954},
      {"measurement": "relative viability", "setting": "NCI-H596; first compound 0.2 µM", "result": 1.14},
      {"measurement": "relative viability", "setting": "NCI-H596; first compound 0.6325 µM", "result": 1.01},
      {"measurement": "relative viability", "setting": "NCI-H596; first compound 2 µM", "result": 0.77},
      {"measurement": "relative viability", "setting": "NCI-H596; first compound 6.325 µM", "result": 1.22},
      {"measurement": "relative viability", "setting": "NCI-H596; first compound 20 µM", "result": 1.02},
      {"measurement": "relative viability", "setting": "NCI-H1755; first compound 0.2 µM", "result": 1.04},
      {"measurement": "relative viability", "setting": "NCI-H1755; first compound 0.6325 µM", "result": 0.901},
      {"measurement": "relative viability", "setting": "NCI-H1755; first compound 2 µM", "result": 0.846},
      {"measurement": "relative viability", "setting": "NCI-H1755; first compound 6.325 µM", "result": 1.03},
      {"measurement": "relative viability", "setting": "NCI-H1755; first compound 20 µM", "result": 0.907},
      {"measurement": "relative viability", "setting": "NCI-H650; first compound 0.2 µM", "result": 1.24},
      {"measurement": "relative viability", "setting": "NCI-H650; first compound 2 µM", "result": 0.914},
      {"measurement": "relative viability", "setting": "NCI-H650; first compound 6.325 µM", "result": 0.871},
      {"measurement": "relative viability", "setting": "NCI-H650; first compound 20 µM", "result": 0.0916},
      {"measurement": "relative viability", "setting": "NCI-H1563; first compound 0.2 µM", "result": 0.991},
      {"measurement": "relative viability", "setting": "NCI-H1563; first compound 0.6325 µM", "result": 0.988},
      {"measurement": "relative viability", "setting": "NCI-H1563; first compound 2 µM", "result": 0.606},
      {"measurement": "relative viability", "setting": "NCI-H1563; first compound 6.325 µM", "result": 1.09},
      {"measurement": "relative viability", "setting": "NCI-H1563; first compound 20 µM", "result": 0.455},
      {"measurement": "relative viability", "setting": "NCI-H838; first compound 0.2 µM", "result": 1.23},
      {"measurement": "relative viability", "setting": "NCI-H838; first compound 0.6325 µM", "result": 0.913},
      {"measurement": "relative viability", "setting": "NCI-H838; first compound 2 µM", "result": 0.801},
      {"measurement": "relative viability", "setting": "NCI-H838; first compound 6.325 µM", "result": 1.06},
      {"measurement": "relative viability", "setting": "NCI-H838; first compound 20 µM", "result": 0.197}
    ]}
  ]
}
